Earlier results, collected in patent US20070026087A1 (priority 2003, published 2007).
Like-named read-outs stand apart in the source and are kept apart here.

Assays:
[1] = tested on: HSV (herpes simplex virus)-1; details: Thurman & Gerba 1989
[2] = tested on: HSV (herpes simplex virus)-2; details: Thurman & Gerba 1989
Vacciniavirus = details: Thurman & Gerba 1989
Adenovirus = details: Thurman & Gerba 1989
HVJ = details: Thurman & Gerba 1989
[3] = reported, effective only temporarily

## CCO [ethanol]
SARS coronavirus; [3]
  efficacy as disinfectant against SARS coronavirus: effective

## O=[N+]([O-])[O-].[Ag+] [silver nitrate]
[1]
  efficacy against HSV-1: effective
[2]
  efficacy against HSV-2: effective
Vacciniavirus
  efficacy against Vacciniavirus: not effective
Adenovirus
  efficacy against Adenovirus: not effective
VSV
  efficacy against VSV: not effective
Poliovirus
  efficacy against Poliovirus: not effective
HVJ
  efficacy against HVJ: not effective

## OCl [sodium hypochlorite]
SARS coronavirus; [3]
  efficacy as disinfectant against SARS coronavirus: effective

## CC(=O)OO [peracetic acid]
SARS coronavirus
  efficacy as disinfectant against SARS coronavirus: effective

## C1CO1 [ethylene oxide gas, ethylene oxide]
SARS coronavirus; [3]
  efficacy as disinfectant against SARS coronavirus: effective

## O=CCCCC=O [glutaraldehyde]
SARS coronavirus; [3]
  efficacy as disinfectant against SARS coronavirus: effective
